Molecules are shown by their SMILES.

For this experiment, the system named is Carrageenan-induced paw edema. Put plainly: Carrageenan-induced paw edema model. The experiment is classed as in vivo, C57BL/6 mice. The note with it: single i.p. dose, 1.5 hours after administration; FIG. 5. On the technique in general: In the carrageenan paw model, swelling and tenderness develop within hours.

Experimental: In order to assess the anti-inflammatory effect of the Muse cell derived EVs, various EV fractions were analyzed for anti-inflammatory efficacy using the paw edema model [16].
In our initial experiment, fifty-five female C57BL/6 mice (Charles River, Eastern Europe) were randomly assigned to one of five treatment groups: • (1) (−) Control (PBS) • (2) (+) Control (Dexamethasone: 20-30 mg/kg) • (3) EV100 (1, 10, or 100 billion EVs) • (4) EV500 (1, 10, or 100 billion EVs) • (5) Muse cell enriched culture (100K, 1 million, or 10 million cells)
Paw edema was induced in each animal by intra-plantar injection of 20 μl of a 1% (w/v) aqueous Carrageenan solution (SIGMA Aldrich) into the right hind paw.
Thirty minutes after the carrageenan injection, each animal received one dose of the control agent (treatment groups 1-2) or experimental agents (treatment groups 3-5) according to the respective assigned treatment group. The agent was administered by intra peritoneal (i.p.) injection. PBS was also used to resuspend EV100 and EV500 samples.
The intensity of the edema development and/or the amelioration thereof was assessed by measuring the paw width (the distance from one outer finger to the opposite outer finger) or paw thickness of the treated paw prior to treatment administration, and 2 h, 24 h, 48 h, and 72 h after administration of the control and experimental agents. […]

As to `C[C@@H]1C[C@H]2[C@@H]3CCC4=CC(=O)C=C[C@]4(C)[C@@]3(F)[C@@H](O)C[C@]2(C)[C@@]1(O)C(=O)CO` [dexamethasone], the “paw thickness, immediate response” value is given as “no effect”.

These data come from patent publication US20250170183A1, “METHOD FOR ENRICHING MUSE CELLS AND OBTAINING EXOSOMES, MICROVESICLES OR THE SECRETOME THEREFROM” (priority 2022, published 2025).
